The record followed here is US12421232B2, “Kinase inhibitor compounds and compositions and methods of use” (ICAHN SCHOOL OF MEDICINE AT MOUNT SINAI, priority 2018, dated 2025).

As usually defined, the inhibition is the share of the control response that was lost under treatment. A higher inhibition goes with a strong effect.

Holding throughout (assay type): binding
Assay [1] deals with 468 kinases. The assay can be described thus: KINOMEscan profile, whole panel. Conditions: 10 μM.
The target of assay [2] is T1, Adrenergic α2B (Homo sapiens, UniProt P18089).
T1 construct: purchased Eurofins CEREP
The assay can be described thus: Eurofins CEREP Screen.

Assay [3] concerns the target T2, Serotonin (5-Hydroxytryptamine) 5-HT2A (Homo sapiens, UniProt P28223).
T2 construct: purchased Eurofins CEREP
The assay can be described thus: Eurofins CEREP Screen.

The target in assay [4] is T3, Serotonin (5-Hydroxytryptamine) 5-HT2C (Homo sapiens, UniProt P28335).
T3 construct: purchased Eurofins CEREP
Put plainly: Eurofins CEREP Screen.

Assay [5] concerns the target T4, Serotonin (5-Hydroxytryptamine) 5-HT7 (Homo sapiens, UniProt P34969).
T4 construct: Eurofins CEREP (contract screen)
The assay can be described thus: Eurofins CEREP Screen.

T4 sequence (P34969 whole entry): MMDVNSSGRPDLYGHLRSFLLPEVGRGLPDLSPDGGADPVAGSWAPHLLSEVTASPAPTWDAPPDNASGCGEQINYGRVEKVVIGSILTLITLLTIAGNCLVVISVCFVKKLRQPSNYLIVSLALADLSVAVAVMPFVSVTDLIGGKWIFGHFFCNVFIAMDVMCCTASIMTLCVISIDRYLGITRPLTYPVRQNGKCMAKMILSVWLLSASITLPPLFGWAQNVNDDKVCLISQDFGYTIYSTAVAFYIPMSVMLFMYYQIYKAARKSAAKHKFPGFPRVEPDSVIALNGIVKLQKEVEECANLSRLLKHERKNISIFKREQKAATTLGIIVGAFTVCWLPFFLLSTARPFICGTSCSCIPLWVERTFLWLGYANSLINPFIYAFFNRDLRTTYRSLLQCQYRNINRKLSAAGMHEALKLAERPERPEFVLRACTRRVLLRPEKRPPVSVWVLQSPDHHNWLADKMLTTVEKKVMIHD
T1 sequence (P18089 whole entry): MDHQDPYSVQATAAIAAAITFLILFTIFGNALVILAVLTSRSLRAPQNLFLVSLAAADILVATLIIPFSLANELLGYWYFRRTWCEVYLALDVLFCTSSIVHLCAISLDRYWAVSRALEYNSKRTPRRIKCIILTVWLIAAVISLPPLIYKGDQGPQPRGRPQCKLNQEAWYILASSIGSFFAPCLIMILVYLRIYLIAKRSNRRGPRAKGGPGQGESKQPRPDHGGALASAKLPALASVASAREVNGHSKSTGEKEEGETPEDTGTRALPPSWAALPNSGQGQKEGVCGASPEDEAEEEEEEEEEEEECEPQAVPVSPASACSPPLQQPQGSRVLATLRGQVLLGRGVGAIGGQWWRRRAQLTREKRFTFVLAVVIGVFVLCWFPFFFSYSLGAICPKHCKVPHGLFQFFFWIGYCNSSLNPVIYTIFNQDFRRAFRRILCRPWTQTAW
T2 sequence (P28223 whole entry): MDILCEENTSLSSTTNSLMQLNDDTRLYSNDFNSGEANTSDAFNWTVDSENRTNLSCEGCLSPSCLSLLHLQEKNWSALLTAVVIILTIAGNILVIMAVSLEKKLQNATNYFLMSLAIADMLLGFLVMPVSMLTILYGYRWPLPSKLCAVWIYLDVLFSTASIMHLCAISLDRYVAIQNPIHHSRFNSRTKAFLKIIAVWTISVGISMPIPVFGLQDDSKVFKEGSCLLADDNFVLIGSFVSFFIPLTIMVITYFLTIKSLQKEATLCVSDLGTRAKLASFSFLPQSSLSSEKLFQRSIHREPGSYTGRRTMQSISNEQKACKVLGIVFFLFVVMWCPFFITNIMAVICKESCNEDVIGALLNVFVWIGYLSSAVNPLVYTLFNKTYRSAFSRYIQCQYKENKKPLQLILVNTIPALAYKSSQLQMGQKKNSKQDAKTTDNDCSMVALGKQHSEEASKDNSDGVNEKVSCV
T3 sequence (P28335 33-458): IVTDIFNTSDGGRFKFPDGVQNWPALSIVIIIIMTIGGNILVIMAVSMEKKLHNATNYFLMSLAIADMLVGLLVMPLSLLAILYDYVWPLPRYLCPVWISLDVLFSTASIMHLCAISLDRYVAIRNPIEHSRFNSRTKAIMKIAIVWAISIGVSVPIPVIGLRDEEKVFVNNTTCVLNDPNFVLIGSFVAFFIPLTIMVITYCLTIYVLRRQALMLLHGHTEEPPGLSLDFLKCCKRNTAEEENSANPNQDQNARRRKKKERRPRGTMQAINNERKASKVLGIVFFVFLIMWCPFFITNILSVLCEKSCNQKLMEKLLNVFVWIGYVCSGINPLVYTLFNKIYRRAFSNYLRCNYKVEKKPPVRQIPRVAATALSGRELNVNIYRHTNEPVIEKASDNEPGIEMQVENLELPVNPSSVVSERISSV

For the molecule `COc1ccc2c(c1)[nH]c1c(C)nccc12` [Harmine, reference compound], the “kinases inhibited (<20% activity remaining) in addition to DYRK1A” value in assay [1] is listed as 16. Moreover, the inhibition at 10 µM was found to be 32% in assay [2], 23% in assay [3], 75% in assay [4] and 30% in assay [5].
